row,Compound,melting point [°C]
1,CCCc1nnc(-c2ccc(N(C)C)cc2)n1-c1ccc(OC)cc1,160
2,COCN1C(=O)CN=C(c2ccccc2)c2cc(NO)ccc21,168 to 170
3,C#CC1(Oc2ccc(F)cc2[N+](=O)[O-])CCN(C)CC1,70 to 73
4,COc1ccc(C(=O)Cc2cccnc2)cc1,71 to 72
5,CCCCOC(=O)CNC(=O)c1ncccc1OC,60 to 62
6,CNc1nc(-c2cccc(NC(=O)c3ccc(Cl)nc3)c2)c2cc(OC)c(OC)cc2n1,157 to 159
7,CSc1nccn1CC(=O)NC1C(=O)N2C(C(=O)O)=C(COC(C)=O)CSC12 (stereo not drawn),245 to 247
8,CS(=O)c1ccc(C(CC2CCCC2)C(=O)Nc2nccs2)cc1 (stereo not drawn),170 to 173
9,CC(=O)OCCN1C(=O)CN2CCOC2(c2ccccc2F)c2cc(Cl)ccc21 (stereo not drawn),120 to 123
10,COC(SC)C(=O)c1[nH]c2cc(Br)c(Cl)cc2c1-c1ccccc1 (stereo not drawn),145 to 147
11,O=C(O)CCCSc1ncnc2ncn(Cc3ccc4c(c3)Nc3nccnc3S4)c12,120 to 130
12,COc1ccc(NC(=O)c2ccc(Cl)c(Cl)c2)cc1NCc1cccc(F)c1,197 to 199
13,COc1ccc(C(O)CNC(C)Cc2ccc(OCCO)cc2)cc1F (stereo not drawn),112 to 115
14,Cc1ccc(C=NNC(=O)c2ccc(O)cc2)s1,216
15,CCOC(=O)C1CCCCN1C(=O)Nc1cc(C(=O)OC(C)C)c(Cl)cc1F (stereo not drawn),83 to 85
16,Brc1ccc(-c2ccc3ccccc3c2)cc1,121 to 123
17,O=C1CC(Br)CCCCCCCCCN1 (stereo not drawn),155 to 157

row,Compound,melting point [°C]
1,CCCCCCCCCCCCCCCCCCOc1cc(N)cc(N(CC(=O)O)CC(=O)O)c1,185 to 195
2,CN(C)C=CC(=O)C(=O)c1ccccc1,88
3,CC(=O)OC1CSC(Oc2cncc(-c3ccc(C)cc3Cl)c2)C(OC(C)=O)C1OC(C)=O (stereo not drawn),162
4,Cc1c(Cc2cccc(C(F)(F)F)c2)sc2c(-c3cc(C(=O)NCCO)ccn3)cccc12,201 to 202
5,CCC1(CCCCN2CCN(c3ccccn3)CC2)C(=O)Nc2ccc(Cl)cc21 (stereo not drawn),154 to 156
6,CC1(C)C(=O)Nc2cc3[nH]c(NC(=O)c4ccncc4)nc3cc21,> 300
7,CCCCCCCCCCCCN=C=S,75 to 80
8,O=[N+]([O-])c1ccc(N2CC(O)C2)c(F)c1,130 to 132
9,CCCNC(=S)NCCc1cccc2ccc(OC)cc12,95 to 97
10,Fc1ccc(N2CCN(CCCOc3cccc(-c4nnco4)c3)CC2)cc1,105 to 106
11,O=[N+]([O-])c1ccc2c(c1)C1OC1CCO2 (stereo not drawn),121 to 123
12,O=S(=O)(c1ccc(Oc2cccc(C(F)(F)F)c2)cc1)c1ccc(Oc2cccc(C(F)(F)F)c2)cc1,96.5 to 97.5
13,"CCOC(=O)C1=C(C)NC(C)=C(C(=O)OC)C1c1cccc(N)c1 (single isomer, unassigned; (-))",173 to 175
14,CCCOc1ccc2c(c1)C(c1ccc(OC)cc1OCC(=O)O)C(C(=O)O)C2c1cc2c(cc1OC)OCO2 (stereo not drawn),188 to 190
15,Cc1c(Cl)cccc1S(=O)(=O)Nc1nc(CC(=O)Oc2ccccc2)cs1,189
16,COC(=O)c1nn(C2CCCCO2)cc1NC(=O)c1cccc(C)n1 (stereo not drawn),100 to 102
17,Nc1cc(=O)n(CC2CCCCC2)c(=S)n1CC1CCCCC1,147 to 150

# Other lines, results leading:
row,melting point [°C],Compound
1,59 to 61,CC(=O)c1ccc(OCCCBr)c(C)c1
2,110 to 112,COc1ccc([C@H](Sc2ccccc2N)[C@@H](O)C(N)=O)cc1
3,137 to 139,Cc1ccc(C(=O)NCc2ccc(O)c3ncccc23)cc1
4,222,Cn1c2ccc(C(=O)c3ccccc3)cc2c2cc(C(=O)c3ccccc3)ccc21
5,214 to 218,CCn1cc(C(=O)NCc2ccc(Cl)cc2)c(=O)c2cc(I)sc21
6,112 to 114,Cc1ccccc1N1CCN(S(=O)(=O)CC23CCC(CC2=O)C3(C)C)CC1 (stereo not drawn)
7,66 to 68,CCOC(=O)C(NC(=O)OCc1ccccc1)OCC (stereo not drawn)
8,128 to 130,COc1ccc(OC)c(-c2cc(OC)cc3c2OC(CN)C3)c1 (stereo not drawn)
9,65 to 68,CC(C)N(Cc1ccccc1)C(=O)C(=O)N1CCN(c2ccccc2C(C)(C)C)CC1
10,256 to 258,CC12CCC3c4ccc(O)cc4CCC3C1CC=C2c1cccnc1 (stereo not drawn)
11,154 to 156,Cc1ccc(N)c(OCCOc2cc(C(=O)OC(C)(C)C)ccc2N)c1
12,124 to 125,CCCC(=O)c1cc2c(c(Cl)c1Cl)OC(C(=O)O)C2 (stereo not drawn)
13,149 to 156,c1ccc(NCC2CCCO2)cc1 (stereo not drawn)
14,130 to 135,CC(C)(C)c1nc(C=CC(COc2ccccc2)=NO)nc(C(C)(C)C)c1O
15,136 to 137,CN(C)Cc1cc(-c2ccccc2)c(O)c(-c2ccccc2)c1
16,53 to 55,FC1(F)c2ccccc2C(F)(F)C(F)(F)c2ccccc21
17,230 to 231,CC1CN(c2c(F)cc3c(=O)c(C(=O)O)cn(C4CC4)c3c2F)CC1NC(=O)OC(C)(C)C (stereo not drawn)
18,90 to 93,CCCCC1(O)C(C)=CC(=O)CC1(C)C (stereo not drawn)
19,132 to 136,Oc1cccc2c1C=CC=CN2
20,92 to 93,COc1ccc(SCc2c(C(C)C)nc(C(C)C)c(CO)c2-c2ccc(F)cc2)cc1

row,melting point [°C],Compound
1,160 to 162,CN1C(=O)c2c(c3ccc(Cl)cc3n2CCN2CCCCC2)Oc2ccccc21
2,100 to 102,CCOC(=O)C(=CNc1ncnc2ccc(N(C(=O)CC(C)(C)C)C(=O)CC(C)(C)C)cc12)C(=O)OCC
3,108 to 109,O=C1OC(O)c2ccc(Cl)cc21 (stereo not drawn)
4,87 to 88,COP(=O)(Cc1ccc2ccc(CP(=O)(OC)OC)cc2c1)OC
5,160 to 162,OCC1OC(n2cnc3c(NC4CCCCC4)nc(Cl)nc32)CC1O (stereo not drawn)
6,166 to 168,O=C(Cn1c(-c2ccc(F)cc2)nc2cccnc21)OCCO
7,140 to 143,O=C1OC2CC3CC(C2)OC1O3
8,144 to 149,CC(=O)NC(CCCCCCCCC(NC(C)=O)C1CCCCCCC1)C1CCCCCCC1 (stereo not drawn)
9,166 to 168,CCOC(=O)C1(C(=O)OCC)CCC2(c3cc(OC)c(OC)cc3CCN2C(C)=O)C(C2c3cc(OC)c(OC)cc3CCN2C)C1 (stereo not drawn)
10,238 to 241,O=c1[nH]c2c(-c3ccccc3F)nnn2c2ccccc12
11,121 to 123,COC(=O)N(CO)c1ccc(OCc2nc3ccccc3s2)cc1C
12,199 to 201,CSc1nn2c(N3CCN(C)CC3)cc(CN3CCOCC3)nc2c1S(=O)(=O)c1ccccc1
13,64 to 69,CC(C)(C)OC(=O)NCC1=CC(c2ccccc2)Cc2c1ccc(OC(=O)C(C)(C)C)c2OC(=O)C(C)(C)C (stereo not drawn)
14,130,CCNC(=O)Oc1cccc(CCNC(=O)/C=C/c2cccnc2)c1
15,186,O=C(c1ccncc1)c1cccc(NC(=O)c2ccn3c2CSC3c2cccnc2)c1 (stereo not drawn)
16,237 to 240,Nc1nc(-c2cc(Cl)ccc2Cl)nc(N2CCCCC2C(=O)O)n1 (stereo not drawn)
17,168 to 169,CN1CCN(c2cnn(C)c(=O)c2C=NO)CC1
18,159 to 163,COc1cccc(-c2cc3[nH]nc(I)c3s2)c1
19,185 to 187,CNc1nc(-c2ccc(O)c(F)c2)cc2c(OC)cccc12

# Reference: a melting point compilation (Tetko et al.; mined from patent text by program, amines drawn as free bases though some values may be those of a salt)
